Test results taken from patent publication US20260183262A1, “RNA-BINDING MOTIF PROTEIN 39 (RBM39) DEGRADERS FOR TREATMENT OF CANCERS” (RECURSION PHARMACEUTICALS, INC., priority 2022, published 2026).

Experiments:
CDK12 knockout = test: High content phenotypic CRISPR/Cas9 screen in HUVEC cells: CDK12 knockout phenocopy; assay type: cell-based, human; details: wild-type HUVEC cells; machine vision analysis
From the text: (§1) As disclosed herein, numerous small molecules have been investigated for HRD deficient and PARP inhibitor resistant cancers and it was confirmed that E7820 is efficacious alone or in combination with PARP inhibitors in preclinical mouse cancer models. To select E7820 as a potential therapeutic for this disease, a high content phenotypic whole genome arrayed CRISPR/Cas9 screen was developed in HUVEC cells to identify cellular and structural changes associated between the genetic knockout of human genes. This high dimensional biological data set of single gene knockout phenotypes was then compared to the cellular and structural changes arising from the treatment of over 200,000 small molecules in intron-controlled wild-type HUVEC cells. […] RBM39 degraders, such as these aryl sulfonamides, may therefore be used to treat cancers where CDK12 is a suitable therapeutic target, for example, cancers where patients develop resistance to PARP inhibitors or cancers with HRD negative/HR-proficient tumors. Similar to depletion of CDK12, RBM39 degraders may be used to induce a synthetic lethality phenotype when combined with DDR inhibitors such as PARP inhibitors, thus enabling treatment of patients who would not derive benefit from treatment with the DDR inhibitor in the absence of an RBM39 degrader.

[1] = system: RNA-binding motif protein 39 (RBM39) CRISPR/Cas9 knockout; test: High content phenotypic CRISPR/Cas9 screen in HUVEC cells: RBM39 knockout phenocopy; assay type: cell-based, human; details: wild-type HUVEC cells; machine vision analysis
From the text: as §1

OVCAR3 cells = test: CellTiter-Glo cell viability assay in OVCAR3 cell line; assay type: cell-based, human; details: 72 h
Experimental: • Cell culture: OVCAR3 is a human ovarian cancer cell line that is BRCA-proficient and HRD negative. Pharmaron in China acquired this cell line for in vitro testing. OVCAR3 human ovarian tumor cells were maintained in vitro with RPMI-1640 (Glutamax)+0.01 mg/ml insulin+20% FBS+1% PS • Cell Seeding: Cells were harvested from flask into cell culture medium and counted. Cells were diluted with culture medium for below cell densities and 8000 OVCAR cells were plated per well in a 384-well plate (PerkinElmer, Cat. #6007680), using electronic multichannel pipette in 40 μL. For the low control wells, 40 μL PBS was added. […] Plates were covered with lid and spun at 1 min/1000 rpm followed by incubation overnight at 37° C., 5% CO2. • Compound Time: SR4835 and THZ531 were dissolved at 10 mM stock solution and diluted in a 3-fold, 9-point diluted series. Cells were treated with 40 nL of SR4835 and THZ531 by plate reformat Echo550 followed by incubation at 37° C. for 72 h in a CO2 incubator. For the high control, 40 nL DMSO was added. • Readout: CellTiter-Glo@ 2.0 Reagent (Promega, G9242) was removed from the fridge and equilibrated at RT(23° C.) for 60 minutes. Plates were removed from the incubator and allowed to equilibrate to room temperature, for at least 15 minutes. 30 μL CellTiter-Glo® 2.0 Reagent was added to the assay plates and allowed to sit for 30 minutes prior to reading. Luminescence signal was read on Envision. • Calculation: Cell viability (% DMSO control) was calculated using the following equation
• Cell culture: OVCAR3 is a human ovarian cancer cell line that is BRCA-proficient and HRD negative. Pharmaron in China acquired this cell line for in vitro testing. OVCAR3 human ovarian tumor cells were maintained in vitro with RPMI-1640 (Glutamax)+0.01 mg/ml insulin+20% FBS. • Cell Seeding: Cells were harvested from flask into cell culture medium and counted. Cells were diluted with culture medium for below cell densities and 8000 OVCAR cells were plated per well in a 384-well plate (PerkinElmer, Cat. #6007680), using electronic multichannel pipette in 50 μL For the low control wells, 50 μL PBS was added. […] Cells were treated with E7820 and indisulam by plate reformat Echo software and spun 1 min/1000 rpm followed by incubation at 37° C. for 72 h in a CO2 incubator. • Readout: CellTiter-Glo@ 2.0 Reagent (Promega, G9242) was removed from the fridge and equilibrated at RT (23° C.) for 60 minutes. […] 40 μL CellTiter-Glo® 2.0 Reagent was added to the assay plates, and spun 1 min/1000 rpm, then allowed to sit for 20 minutes prior to reading. Luminescence signal was read on Envision. • Calculation: Cell viability (% DMSO control) was calculated using the following equation

CDK12+Cyclin K = target: T1, CDK12+Cyclin K (Homo sapiens, UniProt Q9NYV4); test: NanoBRET target engagement intracellular kinase assay in HEK293; assay type: cell-based; details: HEK293 cells transfected with CDK12-NanoLuc and CCNK; up to 10 μM
T1 construct: host or cells: HEK293 (transient transfection, FuGENE HD)
T1 sequence (Q9NYV4 whole entry): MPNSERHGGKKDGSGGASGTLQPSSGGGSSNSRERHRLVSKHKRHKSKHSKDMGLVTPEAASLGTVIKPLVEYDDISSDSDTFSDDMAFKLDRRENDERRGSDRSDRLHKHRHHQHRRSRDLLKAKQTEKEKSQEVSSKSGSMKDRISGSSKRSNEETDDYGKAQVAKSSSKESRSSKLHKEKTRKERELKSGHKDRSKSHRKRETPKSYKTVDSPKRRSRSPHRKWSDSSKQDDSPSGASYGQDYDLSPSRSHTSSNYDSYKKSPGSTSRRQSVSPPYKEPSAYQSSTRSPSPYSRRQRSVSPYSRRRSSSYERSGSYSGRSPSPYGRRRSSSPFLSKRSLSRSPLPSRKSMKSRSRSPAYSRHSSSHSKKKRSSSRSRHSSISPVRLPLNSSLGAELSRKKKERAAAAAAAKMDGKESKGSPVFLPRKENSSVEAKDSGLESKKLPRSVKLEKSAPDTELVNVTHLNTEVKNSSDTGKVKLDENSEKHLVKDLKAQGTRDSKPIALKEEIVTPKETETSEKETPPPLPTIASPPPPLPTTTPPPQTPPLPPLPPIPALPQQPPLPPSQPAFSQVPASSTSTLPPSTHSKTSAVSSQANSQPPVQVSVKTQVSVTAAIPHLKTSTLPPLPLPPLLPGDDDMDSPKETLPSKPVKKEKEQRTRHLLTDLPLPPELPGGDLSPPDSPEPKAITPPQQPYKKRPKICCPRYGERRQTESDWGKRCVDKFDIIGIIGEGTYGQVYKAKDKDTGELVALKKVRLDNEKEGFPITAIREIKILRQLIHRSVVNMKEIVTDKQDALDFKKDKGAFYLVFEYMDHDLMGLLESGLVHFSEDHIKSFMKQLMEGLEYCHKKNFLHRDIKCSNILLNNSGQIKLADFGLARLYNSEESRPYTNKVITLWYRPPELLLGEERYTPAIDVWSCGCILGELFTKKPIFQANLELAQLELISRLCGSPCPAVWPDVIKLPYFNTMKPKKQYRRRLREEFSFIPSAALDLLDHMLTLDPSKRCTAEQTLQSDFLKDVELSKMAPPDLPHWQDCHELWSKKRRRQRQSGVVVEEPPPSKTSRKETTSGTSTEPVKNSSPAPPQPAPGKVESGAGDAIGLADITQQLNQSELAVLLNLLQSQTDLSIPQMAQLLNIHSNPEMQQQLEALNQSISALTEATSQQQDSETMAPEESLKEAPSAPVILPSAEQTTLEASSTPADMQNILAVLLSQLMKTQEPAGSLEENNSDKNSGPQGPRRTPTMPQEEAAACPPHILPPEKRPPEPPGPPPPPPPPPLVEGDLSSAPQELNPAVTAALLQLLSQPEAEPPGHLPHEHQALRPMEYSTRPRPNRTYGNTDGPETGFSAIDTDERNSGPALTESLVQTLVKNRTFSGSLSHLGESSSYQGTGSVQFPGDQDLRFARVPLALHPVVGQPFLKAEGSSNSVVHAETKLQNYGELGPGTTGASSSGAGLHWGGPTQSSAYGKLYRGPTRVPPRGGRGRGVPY
T1 sequence (O75909 whole entry partner): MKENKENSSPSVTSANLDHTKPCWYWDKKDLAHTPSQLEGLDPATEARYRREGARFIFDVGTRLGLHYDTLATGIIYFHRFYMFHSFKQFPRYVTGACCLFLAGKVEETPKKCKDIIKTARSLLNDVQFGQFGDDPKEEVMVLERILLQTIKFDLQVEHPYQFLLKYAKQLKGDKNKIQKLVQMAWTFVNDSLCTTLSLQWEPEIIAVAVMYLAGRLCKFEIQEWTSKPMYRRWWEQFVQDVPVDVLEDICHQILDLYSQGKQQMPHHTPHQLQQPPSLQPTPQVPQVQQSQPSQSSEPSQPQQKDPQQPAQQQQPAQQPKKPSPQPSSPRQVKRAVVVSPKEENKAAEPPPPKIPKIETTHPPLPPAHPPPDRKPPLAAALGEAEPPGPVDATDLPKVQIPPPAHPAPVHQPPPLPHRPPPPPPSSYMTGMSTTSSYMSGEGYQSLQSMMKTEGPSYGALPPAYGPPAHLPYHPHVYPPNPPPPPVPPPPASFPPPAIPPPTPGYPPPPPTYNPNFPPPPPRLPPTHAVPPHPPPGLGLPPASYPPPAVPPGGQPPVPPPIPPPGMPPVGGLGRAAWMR
Experimental: • Cell culture: CDK12 NanoBRET assay kit was obtained from Reaction Biology with experiment performed by Pharmaron. HEK293 cells were cultured using 90% DMEM with 10% FBS. Cells were cultivated in T-75 flasks in a cell culture incubator set at 37° C., 5% CO^2, 95% relative humidity. Once cells reached 80-90% confluence, they were detached and split. Cultivated cells in T-75 flasks were rinsed with 5 mL PB and aspirated off. 1.5 mL trypsin was added and incubated at 37° C. for approximately 5 minutes or until the cells detached and started to float. Trypsin was inactivated by adding excess serum containing medium. • Transient Transfection of HEK293 Cells: Cell culture medium was removed from cell flask by aspiration and trypsinized, allowing cells to dissociate from flask. Trypsin was neutralized using cell culture medium and centrifuged at 200×g for 5 minutes to pellet cells. Medium was aspirated and resuspended in assay medium consisting of 99% Opti-MEM, reduced serum medium with no phenol red and 1% FBS. Density was adjusted to 2×10^5 cells/ml using assay medium. 10 μg/ml solution of DNA in Opti-MEM was prepared consisting of 9 μg/mL of CCNK, 1 ug/mL of Kinase-NanoLuc fusion vector DNA CDK12, and 1 mL of Opti-MEM. This solution was mixed thoroughly. 30 μl of FuGENE HD Transfection Reagent was added into each milliliter of DNA mixture to form lipid: DNA complex. Mixture was inverted 5-10 times and incubated at ambient temperature for 20 minutes to allow complexes to form. In a sterile, conical tub, 1 part of lipid DNA complex (1 mL) was mixed with 20 parts of HEK293 cells (20 mL) in suspension at 2×10^5 cells/mL. Tube was mixed gently by inversion 5 times. […] Lastly, 20 μL of this 3× complete substrate plus inhibitor solution was added to each well of the 384-well plate and incubated for 2-3 minutes at room temperature and read the plate on the Envision. • Calculation: BRET Ratio was calculated as follows: […]

Row | Compound | phenocopy of CDK12 knockout (cellular and structural changes) (CDK12 knockout) | phenocopy of RBM39 CRISPR/Cas9 knockout [1] | cell viability (OVCAR3 cells) | CDK12 kinase activity (CDK12+Cyclin K)
1 | Nc1ccc(S(=O)(=O)Nc2cnc3c(Cl)cccc3n2)cc1 [CQS] | phenocopy CDK12 loss | phenocopy RNA-binding motif protein 39 (RBM39) CRISPR/Cas9 knockout |  | 
2 | NS(=O)(=O)c1ccc(S(=O)(=O)Nc2cccc3c(Cl)c[nH]c23)cc1 [indisulam] | phenocopy CDK12 loss | phenocopy RNA-binding motif protein 39 (RBM39) CRISPR/Cas9 knockout | minimal effect on cell viability | does not affect CDK12 kinase activity
3 | O=C(NS(=O)(=O)c1ccc(Br)s1)c1ccc(Cl)cc1Cl [tasisulam] | phenocopy CDK12 loss | phenocopy RNA-binding motif protein 39 (RBM39) CRISPR/Cas9 knockout |  | 
4 | Cn1cc(-n2cnc3c(NCc4nc5cc(Cl)c(Cl)cc5[nH]4)nc(N4CCOCC4)nc32)cn1 [SR4835] |  |  | dose-dependent decreases in cell viability | 
5 | CN(C)C/C=C/C(=O)Nc1ccc(C(=O)N2CCC[C@@H](Nc3ncc(Cl)c(-c4c[nH]c5ccccc45)n3)C2)cc1 [THZ531] |  |  | dose-dependent decreases in cell viability | dose-dependent inhibition of kinase function
